“Also recorded” adds a separate entry of the source. Like-named read-outs stand apart in the source and are kept apart here.

Data set [1] has as its target LAR-oxidized (Leukocyte common antigen-related, LAR) (Homo sapiens, UniProt P10586). The data set is described as follows: RPTP assay, standard assay conditions: phosphatase activity of oxidized LAR (DiFMUP substrate, TCEP reduction). The data set is classed as biochemical. How it is done:
(§1) Leukocyte common antigen-related (LAR) and PTPσ were used as illustrative type IIa RPTPs. Illustratively, purified LAR (100 nM) was mixed with H2O2 (2 mM) in phosphatase assay buffer (50 mM HEPES, pH 7.0, 100 mM NaCl, 0.1% BSA) at room temperature for 10 minutes. Excess H2O2 was removed with a Zeba™ Desalting Column (Thermo Scientific) equilibrated in the assay buffer without any reducing agent. Phosphatase activity was measured for each protein sample using 6,8-difluoro-4-methylumbiliferyl phosphate (DiFMUP) as the substrate, with or without 5 mM Tris(2-carboxyethyl)phosphine hydrochloride (TCEP). Activity of the oxidized sample was compared to that of the untreated (unoxidized) sample in the presence of 5 mM TCEP.
(§2) LAR-OX (10 nM) was incubated with compounds (0.1 mM) for varying lengths of time and the phosphatase activity was monitored using DiFMUP as substrate following reduction of the PTP with TCEP (5 mM). TCEP was not removed before adding DiFMUP. DiFMUP was added right after TCEP and the activity was followed continuously for 60 minutes. […] The above protocol was used to test the activity of other phosphatases (PTP1B, PTPσ, SHP2, PTPα, PTEN, and JSP1).

A further data set relates to C2C12 cells. Nature of the data set: Cell vitality under the MuSK phosphorylation experimental condition. In kind it is cell-based, mouse. To be noted: C2C12, experimental condition of FIG. 3.
In another data set the target is PTPσ-oxidized (Homo sapiens, UniProt Q13332). Nature of the data set: RPTP assay, standard assay conditions: phosphatase activity of oxidized PTPσ. The data set is classed as biochemical. How it is done:
as §1, §2

The subject of data set [2] is MuSK phosphorylation (LAR dephosphorylating MuSK) in C2C12 myotubes. The data set is described as follows: MuSK tyrosine phosphorylation in agrin-stimulated C2C12 myotubes (anti-pTyr immunoprecipitation, anti-MuSK blot). In kind it is cell-based, mouse. How it is done: C2C12 cells serum starved (8 hours) and then treated with CL-37 for 1 hour. Following which, cells were stimulated with Agrin (10 nM) for varying lengths of time (0-60 minutes). The cells were lysed and lysates were used to immunoprecipitate tyrosine phosphorylated proteins using 4G10® (05-321 from EMD Milliooire Corp. and PY20 (such as ab10321 fromabcam Plc) antibodies for 90 minutes at 4 C. The immunocomplexes were washed and resolved on SDS gels and immunoblotted using anti-MUSK antibody. For the immunoprecipitation experiments, 1 mg of total cell lysate was incubated with anti-pTyr antibodies at 4° C. for 90 minutes. The interacting protein complexes were immunoprecipitated after incubating the lysate-antibody mixture with protein A/G Sepharose® at 4° C. for 30 minutes. After immunoprecipitation, Sepharose® beads were washed three times at 4° C. with wash buffer (PBS, pH 7.4, 0.05% BSA, 0.05% Tween®-20 and protease inhibitors). Complexes were separated by SDS-PAGE and immunoblotted using anti-MUSK antibody.

The nature of data set [3]: Stability of difluoroborate compounds using 19F and 11B NMR. To be noted: acetonitrile-d3 alone and 80% acetonitrile-d3/20% D2O; up to seven days; room temperature.
[4] abbreviates: Table 2, Formula III, R1 and R2 para to boron, read-out: LAR-ox Ki.
Setting [5] is: FIG. 1, oxidized form, 0.1 to 100 μM compound.
Where [6] appears, read: Table 1, Formula II, potassium salt, R1 and R2 para to boron, read-out: LAR-ox Ki.
[7] abbreviates: FIG. 4, assay similar to FIG. 3, agrin stimulation.
[8] abbreviates: Table 3, Formula IV, read-out: LAR-ox Ki.

Chain of PTPσ-oxidized (Q13332 30-1948): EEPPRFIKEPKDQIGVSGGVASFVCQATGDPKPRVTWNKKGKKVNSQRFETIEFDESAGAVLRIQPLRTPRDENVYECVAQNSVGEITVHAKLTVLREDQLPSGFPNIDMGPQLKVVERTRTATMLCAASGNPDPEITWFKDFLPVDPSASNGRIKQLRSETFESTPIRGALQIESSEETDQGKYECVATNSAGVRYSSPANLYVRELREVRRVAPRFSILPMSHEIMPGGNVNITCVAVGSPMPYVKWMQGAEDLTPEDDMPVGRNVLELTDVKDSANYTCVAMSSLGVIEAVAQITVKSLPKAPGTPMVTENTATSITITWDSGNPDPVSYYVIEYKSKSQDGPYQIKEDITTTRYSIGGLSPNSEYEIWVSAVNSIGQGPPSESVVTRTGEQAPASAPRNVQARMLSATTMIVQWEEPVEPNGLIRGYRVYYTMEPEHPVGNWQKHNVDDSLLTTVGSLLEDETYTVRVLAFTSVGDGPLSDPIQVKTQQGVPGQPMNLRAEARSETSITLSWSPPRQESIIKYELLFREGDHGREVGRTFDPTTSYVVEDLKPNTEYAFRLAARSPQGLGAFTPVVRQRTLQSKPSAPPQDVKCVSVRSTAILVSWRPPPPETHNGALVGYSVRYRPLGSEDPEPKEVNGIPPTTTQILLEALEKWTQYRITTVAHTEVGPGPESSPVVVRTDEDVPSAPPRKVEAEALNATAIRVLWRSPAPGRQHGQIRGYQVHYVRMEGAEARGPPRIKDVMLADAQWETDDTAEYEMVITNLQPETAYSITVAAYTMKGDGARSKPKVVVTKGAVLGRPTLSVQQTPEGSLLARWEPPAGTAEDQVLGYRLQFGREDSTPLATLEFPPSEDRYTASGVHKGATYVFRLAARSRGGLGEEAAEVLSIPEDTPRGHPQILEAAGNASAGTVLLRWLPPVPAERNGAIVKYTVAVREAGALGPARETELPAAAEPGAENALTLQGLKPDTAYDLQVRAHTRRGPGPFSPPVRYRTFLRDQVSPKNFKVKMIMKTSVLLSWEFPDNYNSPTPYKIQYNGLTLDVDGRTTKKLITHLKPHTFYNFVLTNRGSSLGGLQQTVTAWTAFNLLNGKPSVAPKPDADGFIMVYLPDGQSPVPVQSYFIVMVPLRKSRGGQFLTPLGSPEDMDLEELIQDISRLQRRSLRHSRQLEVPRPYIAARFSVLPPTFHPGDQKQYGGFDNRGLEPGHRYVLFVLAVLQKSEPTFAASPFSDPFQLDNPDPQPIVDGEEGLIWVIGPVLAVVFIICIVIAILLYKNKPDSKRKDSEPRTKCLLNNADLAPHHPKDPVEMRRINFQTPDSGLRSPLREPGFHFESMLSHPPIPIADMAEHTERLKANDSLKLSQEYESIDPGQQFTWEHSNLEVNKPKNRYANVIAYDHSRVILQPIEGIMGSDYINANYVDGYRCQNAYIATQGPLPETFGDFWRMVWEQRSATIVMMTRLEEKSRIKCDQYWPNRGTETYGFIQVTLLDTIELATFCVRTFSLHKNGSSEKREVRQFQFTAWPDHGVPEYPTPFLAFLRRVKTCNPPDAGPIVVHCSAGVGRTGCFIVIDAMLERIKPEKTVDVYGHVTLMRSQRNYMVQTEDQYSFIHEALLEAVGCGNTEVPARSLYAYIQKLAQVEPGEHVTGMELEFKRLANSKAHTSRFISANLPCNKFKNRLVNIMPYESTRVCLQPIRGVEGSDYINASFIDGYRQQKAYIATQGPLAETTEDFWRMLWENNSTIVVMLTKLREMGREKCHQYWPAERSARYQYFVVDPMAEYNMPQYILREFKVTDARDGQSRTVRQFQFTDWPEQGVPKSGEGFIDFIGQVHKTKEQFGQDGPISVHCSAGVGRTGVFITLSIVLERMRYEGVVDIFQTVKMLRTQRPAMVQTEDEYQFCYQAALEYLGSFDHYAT
Chain of LAR-oxidized (Leukocyte common antigen-related, LAR) (P10586 30-1907): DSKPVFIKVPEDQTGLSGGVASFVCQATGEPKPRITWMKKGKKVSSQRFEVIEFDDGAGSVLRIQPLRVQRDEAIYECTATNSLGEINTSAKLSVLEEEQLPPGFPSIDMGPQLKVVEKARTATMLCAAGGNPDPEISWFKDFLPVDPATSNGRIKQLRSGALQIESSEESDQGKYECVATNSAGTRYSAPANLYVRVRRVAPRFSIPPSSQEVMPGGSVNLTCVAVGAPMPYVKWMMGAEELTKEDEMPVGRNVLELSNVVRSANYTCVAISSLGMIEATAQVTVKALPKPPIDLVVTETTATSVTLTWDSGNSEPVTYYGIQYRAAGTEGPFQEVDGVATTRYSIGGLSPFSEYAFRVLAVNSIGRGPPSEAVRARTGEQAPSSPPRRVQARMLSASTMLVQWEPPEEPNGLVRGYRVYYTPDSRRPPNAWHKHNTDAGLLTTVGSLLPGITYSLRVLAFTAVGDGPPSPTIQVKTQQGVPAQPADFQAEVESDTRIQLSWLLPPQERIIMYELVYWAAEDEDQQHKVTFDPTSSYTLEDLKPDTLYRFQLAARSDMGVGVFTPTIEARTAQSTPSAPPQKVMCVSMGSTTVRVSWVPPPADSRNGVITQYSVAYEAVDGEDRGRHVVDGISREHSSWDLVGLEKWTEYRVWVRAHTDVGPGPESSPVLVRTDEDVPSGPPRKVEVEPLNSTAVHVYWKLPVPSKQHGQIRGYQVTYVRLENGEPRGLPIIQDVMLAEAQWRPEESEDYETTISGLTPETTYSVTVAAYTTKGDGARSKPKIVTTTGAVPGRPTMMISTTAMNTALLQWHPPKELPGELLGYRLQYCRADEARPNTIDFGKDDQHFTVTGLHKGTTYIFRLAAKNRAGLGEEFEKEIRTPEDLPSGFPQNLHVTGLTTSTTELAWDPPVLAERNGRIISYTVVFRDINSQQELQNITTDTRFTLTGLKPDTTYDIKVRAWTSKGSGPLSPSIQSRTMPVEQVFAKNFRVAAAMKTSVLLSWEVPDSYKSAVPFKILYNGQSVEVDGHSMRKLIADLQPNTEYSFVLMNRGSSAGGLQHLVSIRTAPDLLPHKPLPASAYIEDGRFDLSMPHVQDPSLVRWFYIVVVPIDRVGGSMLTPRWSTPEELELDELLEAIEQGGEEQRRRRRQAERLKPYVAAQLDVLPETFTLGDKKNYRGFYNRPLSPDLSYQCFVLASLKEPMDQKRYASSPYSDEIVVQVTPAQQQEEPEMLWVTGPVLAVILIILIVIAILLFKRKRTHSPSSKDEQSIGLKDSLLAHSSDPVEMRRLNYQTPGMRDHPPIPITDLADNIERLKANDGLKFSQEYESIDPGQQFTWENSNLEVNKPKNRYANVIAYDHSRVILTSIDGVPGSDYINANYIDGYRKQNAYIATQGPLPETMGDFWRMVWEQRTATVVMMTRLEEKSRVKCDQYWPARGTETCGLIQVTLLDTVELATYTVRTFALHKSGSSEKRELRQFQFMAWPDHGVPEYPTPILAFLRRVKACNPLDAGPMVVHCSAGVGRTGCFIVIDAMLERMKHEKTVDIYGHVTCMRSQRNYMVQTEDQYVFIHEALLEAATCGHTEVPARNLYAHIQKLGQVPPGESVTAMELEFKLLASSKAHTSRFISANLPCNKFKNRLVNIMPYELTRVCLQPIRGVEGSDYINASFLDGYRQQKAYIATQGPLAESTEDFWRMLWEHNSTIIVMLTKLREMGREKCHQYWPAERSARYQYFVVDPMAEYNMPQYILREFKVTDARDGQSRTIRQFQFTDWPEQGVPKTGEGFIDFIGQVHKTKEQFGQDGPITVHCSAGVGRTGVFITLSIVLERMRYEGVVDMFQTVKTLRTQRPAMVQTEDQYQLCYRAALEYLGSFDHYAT

What is called Ki is the equilibrium dissociation constant of an inhibitor or competing ligand from its target. Consider `OB(c1ccccc1)c1ccccc1` [CL-30], for which the inhibition constant (Ki) in data set [1] (setting [4]) was 20 µM.
With `F[B-](F)(c1ccccc1)c1ccccc1` [CL-37], the “effect on cell vitality” value in the data set with C2C12 cells is listed as “did not exhibit an adverse effect on cell vitality”. On PTPσ-oxidized (setting [5]), the “phosphatase activity of PTP-sigma (inhibition)” value was “most actively inhibited”. The inhibition constant (Ki) on PTPσ-oxidized (read-out: PTPσ-oxidized Ki) came to 4 µM; in data set [1] (setting [6]) it was 5 µM. For the same compound, in data set [1] (setting [5]), the “phosphatase activity of LAR (inhibition)” value is listed as “most actively inhibited”. The “phosphorylation level of MuSK versus control” value in data set [2] (FIG. 3, CL-37 5 μM, 1 hour pretreatment, agrin 10 nM, 0-60 minutes) is given as “significantly higher than the control; also recorded: inhibits LAR from dephosphorylating MuSK”; in data set [2] (setting [7]), “higher phosphorylation; also recorded: enhance the phosphorylation level of MUSK”.
`C=CB(O)c1ccccc1` [CL-49]: in data set [1] (read-out: LAR-oxidized Ki), the Ki was greater than 1000 µM.
Regarding `COc1ccc([B-](F)(F)c2ccc(OC)cc2)cc1` [CL-60], the Ki in data set [1] (setting [6]) and in data set [1] (read-out: LAR-oxidized Ki) was greater than 1000 µM each time.
For the compound `F[B-](F)(c1ccc(Cl)cc1)c1ccc(Cl)cc1` [CL-61], in data set [1] (setting [6]), the Ki was 4 µM.
Still for that read-out and setting: the result for `Fc1ccc([B-](F)(F)c2ccc(F)cc2)cc1` [CL-65] reads 4 µM.
Turning to `F[B-](F)(F)c1ccc(-c2ccccc2)cc1` [CL-70], in data set [1] (read-out: LAR-oxidized Ki), the Ki was greater than 1000 µM.
As to `OB(c1ccc(F)cc1)c1ccc(-c2ccccc2)cc1` [CL-73-2], the Ki in data set [1] (setting [4]) came out at 1 µM. In addition, the “phosphorylation level of MuSK versus control” value in data set [2] (setting [7]) was “higher phosphorylation; also recorded: enhance the phosphorylation level of MUSK”.
For `Fc1ccc([B-](F)(F)c2ccc(-c3ccccc3)cc2)cc1` [CL-76], the Ki in data set [1] (setting [6]) and in data set [1] (read-out: LAR-oxidized Ki) was 1 µM in each case. In addition, in data set [2] (setting [7]), the “phosphorylation level of MuSK versus control” value was “higher phosphorylation; also recorded: enhance the phosphorylation level of MUSK”.
Regarding `F[B-](F)(c1ccc(Cl)cc1)c1ccc(-c2ccccc2)cc1` [CL-83], the “hydrolysis or degradation by 19F and 11B NMR” value in data set [3] is recorded as “no hydrolysis or degradation”.
Consider `OB1OCc2ccccc21` [Compound B-1], for which the Ki (at PTPσ-oxidized; in data set [1] (read-out: LAR-oxidized Ki)) was greater than 1000 µM in each case.
For `Nc1ccc2c(c1)COB2O` [Compound B-2], the Ki (at PTPσ-oxidized (read-out: PTPσ-oxidized Ki); in data set [1] (read-out: LAR-oxidized Ki)) was greater than 1000 µM each time.
Turning to `OB1OCCc2cc(F)ccc21` [Compound B-5], the Ki (on PTPσ-oxidized (read-out: PTPσ-oxidized Ki); in data set [1] (setting [8]); in data set [1] (read-out: LAR-oxidized Ki)) was greater than 1000 µM each time.
Regarding `OB1OCc2cc(F)ccc21` [Compound B-7], the inhibitory constant (Ki) (on PTPσ-oxidized (read-out: PTPσ-oxidized Ki); in data set [1] (read-out: LAR-oxidized Ki)) was greater than 1000 µM each time.
With `Nc1ccc2c(c1)B(O)OCC2` [Compound B-14], the inhibition constant Ki at PTPσ-oxidized (read-out: PTPσ-oxidized Ki) was found to be 100 µM; in data set [1] (setting [8]), 57 µM.
On to `OB1OCCc2ccccc21` [Compound S-4], for which the inhibitory constant (Ki) in data set [1] (setting [8]) worked out at 500 µM.
In the case of `O=C(Nc1ccc2c(c1)B(O)OCC2)c1ccc(F)cc1` [Compound S-6], the inhibition constant Ki in data set [1] (setting [8]) and in data set [1] (read-out: LAR-oxidized Ki) was greater than 1000 µM each time.

Source of the values: patent publication US10973835B2, “Boron-containing small molecules for inhibiting activity of a receptor-like protein tyrosine phosphatase” (The Penn State Research Foundation, priority 2017, dated 2021).
